This note sets out measurements from patent US20240228458A1, “PYRIMIDINE DERIVATIVE HAVING PROTEIN KINASE INHIBITORY ACTIVITY, AND THERAPEUTIC PHARMACEUTICAL COMPOSITION COMPRISING SAME” (THERAPEX CO., LTD., priority 2021, published 2024).

What all share (type): cell-based
For test [1], the system named is Ba/F3 cells expressing EGFR-wt. As to the kind of experiment: Growth inhibition (GI50) of Ba/F3 cells expressing EGFR-wt, Celltiter glo. Particulars: Mus musculus, BaF3, 72 h. A digest of the protocol: (§1)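 Steps: plate engineered Ba/F3 cells (100,000 cells/ml); wait 4 h; add compound as a 4-fold, 10-point dilution series made from 2 mM stock, DMSO 0.5%; incubate 72 h at 37 °C under 5% CO2; measure ATP-based viability with CellTiter-Glo; calculate GI50.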
For orientation: ATP-based viability assays read luminescence as a measure of living cells.

For test [2], the system named is Ba/F3 cells expressing del19/T790M/C797S (EGFR-DTC). As to the kind of experiment: Growth inhibition (GI50) of Ba/F3 cells expressing del19/T790M/C797S (EGFR-DTC), Celltiter glo. Particulars: Mus musculus, BaF3, 72 h. A digest of the protocol: as §1
Test [3] relates to Ba/F3 cells expressing L858R/T790M/C797S (EGFR-LTC). As to the kind of experiment: Growth inhibition (GI50) of Ba/F3 cells expressing L858R/T790M/C797S (EGFR-LTC), Celltiter glo. As to conditions: Mus musculus, BaF3, 72 h. The procedure, abridged:
as §1

Test [4] has as its system Ba/F3 cells expressing del19/T790M (EGFR-DT). As to the kind of experiment: Growth inhibition (GI50) of Ba/F3 cells expressing del19/T790M (EGFR-DT), Celltiter glo. Particulars: Mus musculus, BaF3, 72 h. As to the method: (§2) In this experimental example, a determination was made as to whether the compounds prepared in Examples 1-283 have the ability to inhibit the growth of Ba/F3 cells expressing EGFR-wt, del19/T790M/C797S (EGFR-DTC), L858R/T790M/C797S (EGFR-LTC), del19/T790M (EGFR-DT), and L858R/T790M (EGFR-LT) variants.
(§3) The parental Ba/F3 cell line is a population of cells that are not introduced with EGFR variants. Specifically, 100 μl of a cell line expressing each variant was plated in a 96-well plate at a density of 100,000 cells/ml. 10-point, 4-fold serial dilutions of each compound were prepared, starting at 2 mM. After 4 h, 0.5 μl of the compound (0.5% DMSO) was added, followed by incubation at 37° C. and 5% CO2 for 72 h. After incubation, the number of viable cells was measured using a Celltiter glo assay kit (Promega) and the GI50 of the compound was determined. The term “GI50” refers to the molar concentration (μM) of the compound required for 50% growth inhibition of cells.

Test [5] relates to Ba/F3 cells expressing L858R/T790M (EGFR-LT). The test is described as follows: Growth inhibition (GI50) of Ba/F3 cells expressing L858R/T790M (EGFR-LT), Celltiter glo. Particulars: Mus musculus, BaF3, 72 h. As to the method: as §2, §3
In another test the test system is parental Ba/F3 cell line. The test is described as follows: Growth inhibition (GI50) of the parental Ba/F3 cell line (not introduced with EGFR variants), Celltiter glo. Particulars: Mus musculus, BaF3, 72 h, parental Ba/F3 cells. The procedure, abridged: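 Viable cell count by CellTiter-Glo after 72 h at 37 °C gave GI50 values (μM, 50% growth inhibition). Cells lacking EGFR variants were seeded at 100,000 cells/ml and dosed 4 h later with 4-fold serial dilutions from a 2 mM stock, 0.5% DMSO.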

The GI50 is the concentration that inhibits growth by half. Consider `COc1cc(N2CCC(N3CCN(C)CC3)CC2)c(C)cc1Nc1ncc(Br)c(Nc2cc(Cl)ccc2NS(C)(=O)=O)n1` [Example 85], for which the GI50 fell in the range of 100 to 500 nM in test [1]; 1 to 25 nM in test [2]; 1 to 25 nM in test [3]; 1 to 25 nM in test [4]; 1 to 25 nM in test [5]; 500 to 2000 nM in the test on parental Ba/F3 cell line.
`COc1nc(N2CCC(N3CCN(C)CC3)CC2)c(C)cc1Nc1ncc(Br)c(Nc2cc(Cl)ccc2NS(C)(=O)=O)n1` [Example 86, N-(2-((5-bromo-2-((2-methoxy-5-methyl-6-(4-(4-methylpiperazin-1-yl)piperidin-1-yl)pyridin-3-yl)amino)pyrimidin-4-yl)amino)-4-chlorophenyl)methanesulfonamide]: the GI50 in test [1] is 500 to 2000 nM; in test [2], 25 to 100 nM; in test [3] it was 1 to 25 nM; in test [4], 1 to 25 nM; in test [5] it was 25 to 100 nM; in the test on parental Ba/F3 cell line, 2000 to 10000 nM.
Take `CN1CCN(C2CCN(c3ccc(Nc4ncc(Br)c(Nc5cc(Cl)ccc5NS(C)(=O)=O)n4)cc3F)CC2)CC1` [Example 87, N-(2-((5-bromo-2-((3-fluoro-4-(4-(4-methylpiperazin-1-yl)piperidin-1-yl)phenyl)amino)pyrimidin-4-yl)amino)-4-chlorophenyl)methanesulfonamide]: the GI50 in test [1] lay in the range of 100 to 500 nM; in test [2], 25 to 100 nM; in test [3], 25 to 100 nM; in test [4] it was 25 to 100 nM; in test [5], 25 to 100 nM; in the test on parental Ba/F3 cell line it was 100 to 500 nM.
Turning to `COc1cc(N2CCC(N3CCN(C)CC3)CC2)c(Cl)cc1Nc1ncc(Br)c(Nc2cc(Cl)ccc2NS(C)(=O)=O)n1` [Example 88, N-(2-((5-bromo-2-((5-chloro-2-methoxy-4-(4-(4-methylpiperazin-1-yl)piperidin-1-yl)phenyl)amino)pyrimidin-4-yl)amino)-4-chlorophenyl)methanesulfonamide], the concentration for 50% growth inhibition (GI50) in test [1] was in the range of 100 to 500 nM; in test [2], 1 to 25 nM; in test [3] it was 1 to 25 nM; in test [4] it was 1 to 25 nM; in test [5], 1 to 25 nM; with parental Ba/F3 cell line, 500 to 2000 nM.
For `COc1cc(N2CCC(N3CCCN(C)CC3)CC2)c(C)cc1Nc1ncc(Br)c(Nc2cc(Cl)ccc2NS(C)(=O)=O)n1` [Example 89], the GI50 in test [1] fell in the range of 100 to 500 nM; in test [2], 1 to 25 nM; in test [3] it was 1 to 25 nM; in test [4], 25 to 100 nM; in test [5], 1 to 25 nM; in the test with parental Ba/F3 cell line, 500 to 2000 nM.
As to `COc1cc(N2CCC(N3CCCC(N(C)C)C3)CC2)c(C)cc1Nc1ncc(Br)c(Nc2cc(Cl)ccc2NS(C)(=O)=O)n1` (stereo not drawn) [Example 90, N-(2-((5-Bromo-2-((4-(3-(dimethylamino)-[1,4′-bipiperidin]-1′-yl)-2-methoxy-5-methylphenyl)amino)pyrimidin-4-yl)amino)-4-chlorophenyl)methanesulfonamide], the GI50 in test [1] was in the range of 100 to 500 nM; in test [2] it was 1 to 25 nM; in test [3], 1 to 25 nM; in test [4] it was 1 to 25 nM; in test [5], 1 to 25 nM; with parental Ba/F3 cell line, 500 to 2000 nM.
As to `COc1cc(N2CCC(N3CCNCC3)CC2)c(C)cc1Nc1ncc(Br)c(Nc2cc(Cl)ccc2NS(C)(=O)=O)n1` [Example 94, N-(2-((5-bromo-2-((2-methoxy-5-methyl-4-(4-(piperazin-1-yl)piperidin-1-yl)phenyl)amino)pyrimidin-4-yl)amino)-4-chlorophenyl)methanesulfonamide], the GI50 in test [1] lay in the range of 25 to 100 nM; in test [2], 1 to 25 nM; in test [3] it was 1 to 25 nM; in test [4], 1 to 25 nM; in test [5], 1 to 25 nM; with parental Ba/F3 cell line, 500 to 2000 nM.
For the molecule `COc1cc(N2CCC(N3CCCN(C)CC3)CC2)c(Cl)cc1Nc1ncc(Br)c(Nc2cc(Cl)ccc2NS(C)(=O)=O)n1` [Example 95, N-(2-((5-bromo-2-((5-chloro-2-methoxy-4-(4-(4-methyl-1,4-diazepan-1-yl)piperidin-1-yl)phenyl)amino)pyrimidin-4-yl)amino)-4-chlorophenyl)methanesulfonamide], the GI50 in test [1] was 100 to 500 nM; in test [2] it was 1 to 25 nM; in test [3] it was 1 to 25 nM; in test [4], 1 to 25 nM; in test [5], 1 to 25 nM; in the test with parental Ba/F3 cell line it was 500 to 2000 nM.
In the case of `Cc1cc(Nc2ncc(Br)c(Nc3cc(Cl)ccc3NS(C)(=O)=O)n2)c(Cl)cc1N1CCC(N2CCCN(C)CC2)CC1` [Example 97, N-(2-((5-bromo-2-((2-chloro-5-methyl-4-(4-(4-methyl-1,4-diazepan-1-yl)piperidin-1-yl)phenyl)amino)pyrimidin-4-yl)amino)-4-chlorophenyl)methanesulfonamide], the GI50 in test [1] fell in the range of 500 to 2000 nM; in test [2] it was 25 to 100 nM; in test [3], 1 to 25 nM; in test [4], 25 to 100 nM; in test [5], 25 to 100 nM; in the test on parental Ba/F3 cell line, 500 to 2000 nM.
With `Cc1cc(Nc2ncc(Br)c(Nc3cc(Cl)ccc3NS(C)(=O)=O)n2)c(Cl)cc1N1CCC(N2CCCC(N(C)C)C2)CC1` (stereo not drawn) [Example 98, N-(2-((5-bromo-2-((2-chloro-4-(3-(dimethylamino)-[1,4′-bipiperidin]-1′-yl)-5-methylphenyl)amino)pyrimidin-4-yl)amino)-4-chlorophenyl)methanesulfonamide], the GI50 in test [1] lay within 100 to 500 nM; in test [2], 25 to 100 nM; in test [3], 25 to 100 nM; in test [4], 25 to 100 nM; in test [5], 100 to 500 nM; in the test on parental Ba/F3 cell line, 500 to 2000 nM.
`COc1cc(N2CCC(N3CCN(C)CC3)CC2)c(C)cc1Nc1ncc(Cl)c(Nc2ccc3ncccc3c2NS(C)(=O)=O)n1` [Example 115, N-(6-((5-chloro-2-((2-methoxy-5-methyl-4-(4-(4-methylpiperazin-1-yl)piperidin-1-yl)phenyl)amino)pyrimidin-4-yl)amino)quinolin-5-yl)methanesulfonamide]: the GI50 in test [1] lay in the range of 100 to 500 nM; in test [2], 1 to 25 nM; in test [3], 1 to 25 nM; in test [4], 100 to 500 nM; in test [5] it was 25 to 100 nM; in the test on parental Ba/F3 cell line, 2000 to 10000 nM.
`COc1cc(N2CCC(N3CCN(C)CC3)CC2)c(C)cc1Nc1ncc(Cl)c(Nc2ccc3nccnc3c2NS(C)(=O)=O)n1` [Example 131, N-(6-((5-chloro-2-((2-methoxy-5-methyl-4-(4-(4-methylpiperazin-1-yl)piperidin-1-yl)phenyl)amino)pyrimidin-4-yl)amino)quinoxalin-5-yl)methanesulfonamide]: the GI50 in test [1] lay within 100 to 500 nM; in test [2], 25 to 100 nM; in test [3], 1 to 25 nM; in test [4] it was 1 to 25 nM; in test [5], 25 to 100 nM; with parental Ba/F3 cell line it was 500 to 2000 nM.
Regarding `COc1nc(N2CCC(N3CCN(C)CC3)CC2)c(C)cc1Nc1ncc(Cl)c(Nc2ccc3nccnc3c2NS(C)(=O)=O)n1` [Example 134, N-(6-((5-chloro-2-((2-methoxy-5-methyl-6-(4-(4-methylpiperazin-1-yl)piperidin-1-yl)pyridin-3-yl)amino)pyrimidin-4-yl)amino)quinoxalin-5-yl)methanesulfonamide], the 50% growth inhibitory concentration (GI50) in test [1] lay within 100 to 500 nM; in test [2], 25 to 100 nM; in test [3] it was 25 to 100 nM; in test [4], 100 to 500 nM; in test [5], 100 to 500 nM; with parental Ba/F3 cell line it was 100 to 500 nM.
`COc1cc(N2CCC(N3CCN(C)CC3)CC2)c(C)cc1Nc1ncc(Cl)c(Nc2cc3c(cc2NS(C)(=O)=O)CCO3)n1` [Example 140, N-(6-((5-chloro-2-((2-methoxy-5-methyl-4-(4-(4-methylpiperazin-1-yl)piperidin-1-yl)phenyl)amino)pyrimidin-4-yl)amino)-2,3-dihydrobenzofuran-5-yl)methanesulfonamide]: the GI50 in test [1] lay in the range of 100 to 500 nM; in test [2], 25 to 100 nM; in test [3], 1 to 25 nM; in test [4], 1 to 25 nM; in test [5] it was 25 to 100 nM; with parental Ba/F3 cell line it was 500 to 2000 nM.
Take `COc1cc(N2CCC(N3CCN(C)CC3)CC2)c(C)cc1Nc1ncc(Br)c(Nc2ccccc2N=S(C)(C)=O)n1` [Example 142]: the GI50 in test [1] is 500 to 2000 nM; in test [2], 100 to 500 nM; in test [3] it was 25 to 100 nM; in test [4], 500 to 2000 nM; in test [5], 500 to 2000 nM; in the test with parental Ba/F3 cell line it was 500 to 2000 nM.
`COc1cc(N2CCC(N3CCN(C)CC3)CC2)c(Cl)cc1Nc1ncc(Br)c(Nc2ccccc2N=S(C)(C)=O)n1` [Example 143]: the GI50 in test [1] is 100 to 500 nM; in test [2], 100 to 500 nM; in test [3], 100 to 500 nM; in test [4] it was 500 to 2000 nM; in test [5] it was 500 to 2000 nM; in the test on parental Ba/F3 cell line, 100 to 500 nM.
